Results as given in paper PMC12472947 (Pharmaceuticals, 2025).
Values joined by “and” are separate entries in the source; they are usually repeats but may differ in a detail not shown here. Equal entries are not always repeated. Where two headings read alike, the source gives them in different places.

Columns and labels:
[1] = target: T1, hMAO-A (Homo sapiens, UniProt P21397); assay: MAO-A inhibition, fluorometric Amplex Red assay; assay type: biochemical
T1 construct: purchased Sigma-Aldrich, Gillingham, UK
T1 sequence (P21397 1-527): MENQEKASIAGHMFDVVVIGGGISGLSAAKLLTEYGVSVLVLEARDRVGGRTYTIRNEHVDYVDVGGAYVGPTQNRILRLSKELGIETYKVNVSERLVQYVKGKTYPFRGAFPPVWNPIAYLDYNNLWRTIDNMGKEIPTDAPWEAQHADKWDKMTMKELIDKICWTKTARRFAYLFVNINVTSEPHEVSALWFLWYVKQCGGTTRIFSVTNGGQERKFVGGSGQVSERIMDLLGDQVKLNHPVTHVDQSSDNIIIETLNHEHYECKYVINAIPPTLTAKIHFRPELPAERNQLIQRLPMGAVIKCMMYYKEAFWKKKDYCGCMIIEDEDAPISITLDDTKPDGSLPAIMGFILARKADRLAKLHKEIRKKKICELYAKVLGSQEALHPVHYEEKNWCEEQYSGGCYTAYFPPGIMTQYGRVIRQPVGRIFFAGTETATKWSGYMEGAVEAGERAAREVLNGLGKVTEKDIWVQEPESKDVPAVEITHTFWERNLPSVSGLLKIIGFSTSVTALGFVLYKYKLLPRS
Experimental: The activity of human recombinant membrane-bound monoamine oxidase isoforms A and B (MAO-A/B) (Sigma-Aldrich, Gillingham, UK) in 50 mM potassium phosphate buffer (pH 7.5) was determined by measuring hydrogen peroxide production coupled to the fluorescent dye Amplex Red (Sigma-Aldrich, UK) at a final concentration of 50 μM, in the presence of horseradish peroxidase (HRP, 2.5 U/mL). This coupling reaction generates the fluorescent product resorufin, which was quantified at 30 °C using a fluorescence plate reader. […].
Reactions were initiated by adding the substrate and dye after a 30 min preincubation of the inhibitor with the enzyme. Data were analyzed using a three-parameter equation in GraphPad Prism 7.0 (San Diego, USA). Each reported value represents the mean of at least two independent determinations.

[2] = target: electric eel acetylcholinesterase (EeAChE) (Electrophorus electricus, UniProt O42275); assay: Enzymatic kinetic study, EeAChE; assay type: biochemical; conditions: AChE
electric eel acetylcholinesterase (EeAChE), sequence (O42275 24-633): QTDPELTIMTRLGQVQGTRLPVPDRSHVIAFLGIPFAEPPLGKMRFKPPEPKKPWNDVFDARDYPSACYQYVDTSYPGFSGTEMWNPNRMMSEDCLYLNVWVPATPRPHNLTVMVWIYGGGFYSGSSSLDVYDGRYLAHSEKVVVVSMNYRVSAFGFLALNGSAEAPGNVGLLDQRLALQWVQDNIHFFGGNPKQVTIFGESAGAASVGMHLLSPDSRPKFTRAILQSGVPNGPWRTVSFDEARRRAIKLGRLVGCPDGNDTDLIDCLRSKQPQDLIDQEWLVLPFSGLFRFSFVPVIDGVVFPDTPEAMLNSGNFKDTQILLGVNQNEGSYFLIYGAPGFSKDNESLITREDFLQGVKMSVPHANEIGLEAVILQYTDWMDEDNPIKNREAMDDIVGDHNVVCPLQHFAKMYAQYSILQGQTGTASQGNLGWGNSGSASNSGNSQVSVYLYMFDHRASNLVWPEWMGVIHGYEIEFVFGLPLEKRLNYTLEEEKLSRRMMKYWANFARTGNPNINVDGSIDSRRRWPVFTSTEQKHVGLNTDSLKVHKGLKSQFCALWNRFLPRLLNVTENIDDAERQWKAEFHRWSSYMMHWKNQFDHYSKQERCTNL
Experimental: (§1) The enzymatic kinetics of cholinesterase inhibition were determined according to an adapted Ellman’s method. All of the solutions were prepared at 20 °C in 0.02 M Tris-HCl buffer (pH 7.5; ionic strength ~0.02 M), stock solutions of test compounds were prepared in DMSO:EtOH (7:3) mixture (20 mM), and the experiment was conducted in triplicate. To a flat-bottom 96-well transparent plate (path length of 0.6 cm) were added 150 μL of treatment solutions with inhibitors 1a, 1h, and 1j at two different concentrations (Table S1) distributed in eight sets of triplicate each. Eight sets of untreated triplicates were used as a negative control. Following, there were added 60 μL of 5,5′-Dithiobis(2-nitrobenzoic acid) (DTNB, Ellman’s reagent) at 1.1 mM and 30 μL of electric eel acetylcholinesterase (EeAChE) or equine serum butyrylcholinesterase (EqBuChE) at 0.20 U/mL in the presence of 1 mg/mL bovine serum albumin (BSA). […] Ki, Ki’ (competitive and noncompetitive inhibition constants, respectively), Km (Michaelis-Menten constant), and Vmax values were calculated with Graphpad Prism v7.0 using the non-linear regression models for enzyme kinetics inhibition and enzyme kinetics–substrate vs. velocity.

[3] = target: T2, equine serum butyrylcholinesterase (EqBuChE) (Equus caballus, UniProt P81908); assay: Enzymatic kinetic study, EqBChE; assay type: biochemical; conditions: BChE
T2 construct: equine serum BChE [EqBChE]; from tissue; host or cells: equine serum
T2 sequence (P81908 whole entry): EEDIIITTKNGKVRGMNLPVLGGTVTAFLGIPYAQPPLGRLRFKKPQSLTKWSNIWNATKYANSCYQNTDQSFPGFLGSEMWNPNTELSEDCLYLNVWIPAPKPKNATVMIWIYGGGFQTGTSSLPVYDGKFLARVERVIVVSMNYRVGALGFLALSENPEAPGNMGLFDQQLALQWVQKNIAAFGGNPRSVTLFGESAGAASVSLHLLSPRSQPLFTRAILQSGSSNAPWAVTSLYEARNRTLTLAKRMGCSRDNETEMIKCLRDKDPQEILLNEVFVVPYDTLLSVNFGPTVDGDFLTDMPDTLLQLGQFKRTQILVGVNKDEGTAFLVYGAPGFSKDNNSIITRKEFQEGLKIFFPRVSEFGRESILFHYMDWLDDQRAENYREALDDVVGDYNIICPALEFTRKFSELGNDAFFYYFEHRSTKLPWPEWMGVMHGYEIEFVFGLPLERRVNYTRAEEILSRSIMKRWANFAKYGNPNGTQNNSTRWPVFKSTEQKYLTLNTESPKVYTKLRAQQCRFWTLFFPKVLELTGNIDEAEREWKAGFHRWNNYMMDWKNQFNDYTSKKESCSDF
Experimental: as §1

[4] = target: T3, hH3R (Homo sapiens, UniProt Q9Y5N1); assay: H3R radioligand displacement assay ([3H]-N-α-methylhistamine); assay type: binding; conditions: 95% confidence interval in brackets; HEK-293 membranes
T3 construct: expressed in transfected cells; host or cells: HEK-293
T3 sequence (Q9Y5N1 whole entry): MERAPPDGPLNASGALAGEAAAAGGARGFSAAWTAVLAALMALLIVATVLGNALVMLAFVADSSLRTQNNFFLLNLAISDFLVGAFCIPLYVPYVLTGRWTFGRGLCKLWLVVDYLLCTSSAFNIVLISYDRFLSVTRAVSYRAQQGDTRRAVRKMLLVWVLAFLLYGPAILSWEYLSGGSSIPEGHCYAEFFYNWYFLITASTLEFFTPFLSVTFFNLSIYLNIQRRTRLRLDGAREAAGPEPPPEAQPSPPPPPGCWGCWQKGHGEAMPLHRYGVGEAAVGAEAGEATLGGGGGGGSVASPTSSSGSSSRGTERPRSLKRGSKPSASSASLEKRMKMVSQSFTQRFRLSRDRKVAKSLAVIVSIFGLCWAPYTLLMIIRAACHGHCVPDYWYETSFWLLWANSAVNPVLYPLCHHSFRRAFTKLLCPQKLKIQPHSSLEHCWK
Experimental: HEK-293 cells (human embryonic kidney cells) stably expressing hH3R were washed and harvested in PBS buffer (phosphate-buffered saline). […] The cell membrane homogenate was centrifuged (20,000× g, 20 min, 4 °C), and the resulting pellet was resuspended in binding buffer and stored at −80 °C until use.
Prior to experiments, the cell membranes were thawed, homogenized by sonication at 4 °C, and kept in ice-cold binding buffer. Crude membrane extracts (20 μg/well in a final volume of 0.2 mL binding buffer) were incubated with [^3H]-N-α-methylhistamine (2 nM; 78.3 Ci/mmol) and varying concentrations of test compounds. Assays were performed in duplicate, with compound concentrations ranging from 0.01 nM to 100 μM. Incubations proceeded for 90 min at room temperature under continuous agitation.
Bound radioligand was separated from free radioligand by filtration through GF/B filters pretreated with 0.3% (w/v) polyethyleneimine, using a cell harvester. Radioactivity was quantified by liquid scintillation counting. Data were analyzed using GraphPad Prism v8 (San Diego, CA, USA) software, employing non-linear regression analysis.

[5] = enzyme-substrate complex, global non-linear regression (Table 2)
[6] = free enzyme (Table S3), read-out: Ki ± SE (95% CI)
[7] = global non-linear regression, mixed inhibition (Table S3)

SMILES | inhibition at 1 µM ([1]; test concentration of 1 µM, read-out: Percentage of MAO-A inhibition ± SEM) | inhibition mechanism ([2]; Lineweaver-Burk plots) | Ki’ (nM) ± SE [2, 5] | Ki [2, 6] | Ki ([2]; free enzyme, global non-linear regression to mixed-inhibition equation (Table 2), read-out: Ki (nM) ± SE) | α ± SE (95% CI) [2, 7] | Vmax ± SD ([2]; inhibitor 0.005 μM) | Vmax ± SD ([2]; inhibitor 0.007 μM) | inhibition mechanism ([3]; Lineweaver-Burk plots) | Ki ([3]; competitive inhibition constant (Table S2), read-out: Ki (nM) ± SD) | Ki’ (nM) ± SE [3, 5] | Ki [3, 6] | Ki ([3]; free enzyme, global non-linear regression (Table 2), read-out: Ki (nM) ± SE) | α ± SE (95% CI) [3, 7] | Vmax ± SD ([3]; inhibitor 2.8 μM) | Vmax ± SD ([3]; inhibitor 4.8 μM) | Ki [4] | IC50 ([1]; 95% confidence interval in brackets)
O=c1oc2cc(OCCN3CCCCC3)ccc2cc1-c1cn(Cc2ccccc2)nn1 [Compound 1h, 3-(1-Benzyl-1H-1,2,3-triazol-4-yl)-7-(2-(piperidin-1-yl)ethoxy)-2H-chromen-2-one] | 5.2 ± 1.9% | mixed-type inhibition | 7.17 ± 1.48 nM | 4.73 ± 0.878 nM | 4.73 ± 0.88 nM | 1.516 ± 0.3136 | 4.45 ± 0.02231 1 × 10^3 nM/min and 4.45 ± 0.02 1 × 10^3 nM/min | 3.19 ± 0.0981 1 × 10^3 nM/min and 3.19 ± 0.010 1 × 10^3 nM/min | mixed-type inhibition | 980 ± 24 nM | 4830 ± 620 nM | 1250 ± 151 nM | 1250 ± 150 nM | 3.852 ± 0.4265 | 3.62 ± 0.1358 1 × 10^3 nM/min and 3.62 ± 0.14 1 × 10^3 nM/min | 3.40 ± 0.0349 1 × 10^3 nM/min and 3.40 ± 0.03 1 × 10^3 nM/min | 558 nM | 
O=c1oc2cc(OCCCN3CCCCC3)ccc2cc1-c1cn(Cc2ccccc2)nn1 [Compound 1q, 3-(1-Benzyl-1H-1,2,3-triazol-4-yl)-7-(3-(piperidin-1-yl)propoxy)-2H-chromen-2-one] |  |  |  |  |  |  |  |  |  |  |  |  |  |  |  |  | 151 nM | 31100 nM
